This is an account of results in ChEMBL document CHEMBL3632547, “Discovery of 3,5-substituted 6-azaindazoles as potent pan-Pim inhibitors” (Bioorg Med Chem Lett, 2015).

Broadly, the Ki is the equilibrium dissociation constant of an inhibitor or competing ligand from its target. Low values mean tighter binding, high ones weaker binding. By IC50 is commonly meant the midpoint of a concentration-inhibition curve. Low readings indicate inhibition by little substance, high ones a need for much substance. One may read the clearance as the rate of elimination divided by the concentration. Low values mean a low capacity for elimination, high ones a high capacity for elimination. In general, bioavailability refers to dose-corrected exposure relative to a reference, in per cent. Usually Papp A→B stands for how fast a substance crosses the layer from the apical side. What is called efflux ratio is the permeability from basolateral to apical divided by that in the opposite direction, in the common usage.

Molecules are shown by their SMILES.

Series [1] concerns the target Serine/threonine-protein kinase pim-2 (Homo sapiens, UniProt Q9P1W9).
Series [2] deals with Serine/threonine-protein kinase pim-3 (Homo sapiens, UniProt Q86V86).
In series [3] the target is Serine/threonine-protein kinase pim-1 (Homo sapiens, UniProt P11309).
Sequence of Serine/threonine-protein kinase pim-1 (P11309 whole entry): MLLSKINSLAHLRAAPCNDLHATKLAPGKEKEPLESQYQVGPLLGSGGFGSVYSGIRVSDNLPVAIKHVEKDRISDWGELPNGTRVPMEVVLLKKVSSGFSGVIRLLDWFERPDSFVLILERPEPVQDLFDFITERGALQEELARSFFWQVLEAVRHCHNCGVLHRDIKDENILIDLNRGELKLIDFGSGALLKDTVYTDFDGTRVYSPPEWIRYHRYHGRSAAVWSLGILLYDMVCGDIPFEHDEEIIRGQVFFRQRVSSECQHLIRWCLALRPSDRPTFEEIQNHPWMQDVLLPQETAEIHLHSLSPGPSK
The nature of series [4]: Cytotoxicity against wild type interleukin-3 dependent mouse BA/F3 cells after 72 hrs by CellTiter-Glo assay. In kind it is functional, cell-based. The following applies: BaF3, 72 h. (In ATP-based viability assays light output follows the ATP content of the culture.)
A short description of series [5]: Cytotoxicity against interleukin-3 independent mouse BA/F3 cells expressing PIM1 after 72 hrs by CellTiter-Glo assay. In kind it is functional, cell-based. Particulars: BaF3, 72 h.
For series [6], the system named is BaF3. Nature of the series: Ratio of IC50 for wild type interleukin-3 dependent mouse BA/F3 cells to IC50 for interleukin-3 independent mouse BA/F3 cells expressing PIM1. In kind it is functional.
The nature of series [7]: Cytotoxicity against human MM1S cells after 72 hrs by CellTiter-Glo assay. In kind it is functional, cell-based. Particulars: MM1.S.
Series [8] is described as follows: Plasma clearance in rat. Format: ADME, organism-based.
A short description of series [9]: Oral bioavailability in rat. Format: ADME, organism-based. Particulars: in vivo.
Series [10] can be described thus: Plasma protein binding in rat. In kind it is ADME, cell-free. Particulars: read-out: PPB (converted).
Series [11] is described as follows: Intrinsic clearance from rat liver microsomes. In kind it is ADME. The following applies: read-out: CLH. For orientation: Microsomes from liver hold many membrane-bound enzymes, among them those of drug oxidation.
The nature of series [12]: Apparent permeability from apical to basolateral side in MDCK cells. In kind it is ADME, cell-based, Canis lupus familiaris. Particulars: dog.
Series [13] in a line: Efflux ratio of apparent permeability from basolateral to apical over apical to basolateral side in MDCK cells. In kind it is ADME, cell-based, Canis lupus familiaris. Particulars: dog.

Sequence of Serine/threonine-protein kinase pim-2 (Q9P1W9 whole entry): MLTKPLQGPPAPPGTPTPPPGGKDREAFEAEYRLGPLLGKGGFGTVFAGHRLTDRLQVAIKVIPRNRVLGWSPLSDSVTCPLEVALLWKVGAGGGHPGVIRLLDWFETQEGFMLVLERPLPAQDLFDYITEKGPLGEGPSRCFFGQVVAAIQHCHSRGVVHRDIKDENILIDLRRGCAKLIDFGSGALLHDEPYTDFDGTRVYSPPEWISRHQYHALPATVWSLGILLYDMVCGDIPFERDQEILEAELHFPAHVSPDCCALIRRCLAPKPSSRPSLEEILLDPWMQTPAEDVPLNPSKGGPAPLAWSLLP

Consider `Cn1cc(-c2cc3c(-c4cccc(O[C@@H]5CCCNC5)n4)n[nH]c3cn2)cn1`, for which the Ki in series [1] came out at 6.2 nM; in [2] it was 0.16 nM.

Take `Cn1cc(-c2cc3c(-c4cccc(N5CCC[C@@H](N)C5)n4)n[nH]c3cn2)cn1`: the figures for the Ki in series [1] and in series [2] were 0.72 nM and 0.021 nM, respectively.

As to `Cn1cc(-c2cc3c(-c4cccc(N5CC[C@@H](N)C5)n4)n[nH]c3cn2)cn1`, the inhibitory constant (Ki) in series [1] stood at 0.43 nM; in [2], 0.015 nM; in series [3] it was 0.035 nM.

With `Cn1cc(-c2cc3c(-c4cccc(N5CCC[C@H](N)C5)n4)n[nH]c3cn2)cn1`, the results for the Ki in [1] and in series [2] were 0.26 nM and 0.015 nM, respectively.

For `Cn1cc(-c2cc3c(-c4cccc(N5CCC[C@@H](N)C5)c4)n[nH]c3cn2)cn1`, the Ki in series [1] is 1.25 nM; in series [2] it was 0.29 nM.

On to `Cc1ccc(-c2n[nH]c3cnc(-c4cnn(C)c4)cc23)nc1N1CCC[C@H](N)C1`, for which the Ki in series [1] was determined as 0.088 nM; in [2], 0.006 nM.

As to `CCn1cc(-c2cc3c(-c4cccc(N5CCNCC5)n4)n[nH]c3cn2)cn1`, the Ki in series [1] turned out to be 0.473 nM; in series [2] it was 0.041 nM. The IC50 in [4] was found to be 5400 nM; in series [5], 77 nM; in series [7], 640 nM. Also, the “Ratio IC50” value in series [6] was 70. In series [8], the clearance was 14 mL/min/kg. The bioavailability in series [9] amounted to 1%. In addition, the fraction unbound in series [10] is 0.022. Further, the CLint scaled in series [11] is 150 mL/min/kg. Also, in series [12], the Papp A→B stood at 0.5 ×10⁻⁶ cm/s. Also, in series [13], the efflux ratio amounted to 51.

As for `c1cc(-c2n[nH]c3cnc(C4CCCO4)cc23)nc(N2CCNCC2)c1` (stereo unspecified), the inhibitory constant (Ki) in series [1] was determined as 82 nM; in [3], 8.5 nM.

On to `c1cc(-c2n[nH]c3cnc(C4CCCOC4)cc23)nc(N2CCNCC2)c1` (stereo unspecified), for which the figures for the inhibition constant (Ki) in [1] and in series [2] were 26 nM and 1 nM, respectively.

Regarding `O=C1CN(c2cc3c(-c4cccc(N5CCNCC5)n4)n[nH]c3cn2)CCN1`, the Ki was 17 nM in series [1] and 1.4 nM in series [2].

As to `c1cc(-c2n[nH]c3cnc(N4CCOCC4)cc23)nc(N2CCNCC2)c1`, the inhibition constant Ki turned out to be 14 nM in series [1] and 4.4 nM in [2].

Turning to `Cn1cc(-c2cc3c(-c4ccccn4)n[nH]c3cn2)cn1`, the inhibitory constant (Ki) came out at 48 nM in series [1] and 3.7 nM in [2].

`Cn1cc(-c2cc3c(-c4cccc(N5CCCNCC5)n4)n[nH]c3cn2)cn1`: the figures for the inhibitory constant (Ki) in [1], in series [2] and in [3] were 0.17 nM, 0.013 nM and 0.02 nM, respectively.

As for `Cn1cc(-c2cc3c(-c4cccc(C5CCNCC5)n4)n[nH]c3cn2)cn1`, the Ki came to 2.2 nM in series [1] and 0.12 nM in series [2].

Regarding `CCn1cncc(-c2cc3c(-c4cccc(N5CCNCC5)n4)n[nH]c3cn2)c1=O`, the values for the inhibition constant (Ki) in series [1] and in series [2] were 0.145 nM and 0.07 nM, respectively.

Consider `Cn1cc(-c2cc3c(-c4cccc(N5CCNCC5)n4)n[nH]c3cn2)cn1`, for which the Ki in [1] was 0.58 nM; in series [2], 0.017 nM.

Consider `N#CCn1cc(-c2cc3c(-c4cccc(N5CCNCC5)n4)n[nH]c3cn2)cn1`, for which the Ki in series [1] was 0.127 nM; in [2], 0.013 nM.

Consider `c1cc(-c2n[nH]c3cnc(-c4cnn(CC5CC5)c4)cc23)nc(N2CCNCC2)c1`, for which the inhibition constant Ki in [1] came to 0.253 nM; in [2], 0.016 nM.

As for `c1cc(-c2n[nH]c3cnc(-n4ccnc4)cc23)nc(N2CCNCC2)c1`, the inhibition constant Ki came to 5.4 nM in series [1] and 0.65 nM in [2].

Regarding `NC(=O)Cc1cc2c(-c3cccc(N4CCNCC4)n3)n[nH]c2cn1`, the Ki in series [1] was found to be 1100 nM; in series [2], 115 nM.

`NC(=O)Nc1cc2c(-c3cccc(N4CCNCC4)n3)n[nH]c2cn1`: the Ki is 1.1 nM in series [1] and 0.68 nM in series [2].

As for `CN1C(=O)CN(c2cc3c(-c4cccc(N5CCNCC5)n4)n[nH]c3cn2)C1=O`, the inhibitory constant (Ki) turned out to be 33 nM in series [1] and 3.3 nM in series [2].

With `Fc1ccccc1-c1n[nH]c2cnc(-c3cnccc3O[C@@H]3CCCNC3)cc12`, the Ki in [1] was 1.7 nM; in [2], 0.11 nM; in [3], 3.4 nM.

With `Cc1n[nH]c2cnc(-c3cncc(N4CCC(N)CC4)n3)cc12`, the Ki in series [1] was 170 nM; in series [2], 9 nM; in [3], 6 nM.

With `NC1CCN(c2cncc(-c3cc4c(-c5ccccc5F)n[nH]c4cn3)n2)CC1`, the values for the Ki in series [1], in series [2] and in series [3] were 3 nM, 0.1 nM and 0.1 nM, respectively.

Turning to `NCCNc1cccc(-c2n[nH]c3cnc(-c4cccnc4)cc23)n1`, the inhibition constant Ki was 3 nM in series [1], 0.2 nM in [2] and 0.3 nM in [3].

Consider `c1cncc(-c2cc3c(-c4cccc(N5CCNCC5)n4)n[nH]c3cn2)c1`, for which the results for the Ki in series [1], in [2] and in series [3] were 0.5 nM, 0.01 nM and 0.04 nM, respectively.

As to `Cc1cncc(-c2cc3c(-c4cccc(N5CCNCC5)n4)n[nH]c3cn2)c1`, the inhibition constant Ki in series [1] was found to be 0.3 nM; in series [2], 0.037 nM.

On to `Cc1cncc(-c2cc3c(-c4cccc(N5CCNCC5)n4)n[nH]c3cn2)n1`, for which the inhibitory constant (Ki) in series [1] was found to be 0.049 nM; in series [2] it was 0.01 nM.

For `c1cncc(-c2cc3cn[nH]c3cn2)c1`, the inhibition constant (Ki) in series [1] turned out to be 6000 nM; in [2] it was 1800 nM; in series [3], 1300 nM.

With `O=C(Nc1cn[nH]c1)c1cccnc1`, the Ki in series [1] came out at 15000 nM; in series [2], 2900 nM; in series [3] it was 3300 nM.

In the case of `Cc1n[nH]c2cnc(-c3cccnc3)cc12`, the Ki in series [1] amounted to 800 nM; in series [2], 300 nM; in series [3] it was 200 nM.

For `Cc1c[nH]c2cnc(-c3cccnc3)cc12`, the Ki was 3900 nM in [1], 1500 nM in [2] and 800 nM in [3].

As for `Cc1n[nH]c2cnc(-c3cn[nH]c3)cc12`, the inhibition constant (Ki) in [1] came to 900 nM; in series [2] it was 400 nM.

In the case of `Cc1n[nH]c2ccc(-c3cn[nH]c3)cc12`, the figures for the Ki in [1], in series [2] and in [3] were 2700 nM, 3100 nM and 3200 nM, respectively.

`c1ccc(-c2n[nH]c3cnc(-c4cccnc4)cc23)cc1`: the results for the inhibitory constant (Ki) in series [1], in [2] and in [3] were 50 nM, 5 nM and 10 nM, respectively.

For the compound `c1ccc(-c2n[nH]c3cnc(-c4cccnc4)cc23)nc1`, the Ki in [1] turned out to be 70 nM; in [3], 10 nM.

In the case of `Cc1n[nH]c2cnc(-c3cnccc3N3CCC[C@H](N)C3)cc12`, the inhibition constant Ki in series [1] is 8300 nM; in series [2], 5000 nM.

As to `N[C@H]1CCCN(c2ccncc2-c2cc3c(-c4ccccc4F)n[nH]c3cn2)C1`, the inhibition constant Ki in series [1] was determined as 35 nM; in series [2], 6 nM.
